In assay [1] the target is T1, Glucocorticoid receptor (Homo sapiens) (UniProt P04150).
T1 sequence (whole entry): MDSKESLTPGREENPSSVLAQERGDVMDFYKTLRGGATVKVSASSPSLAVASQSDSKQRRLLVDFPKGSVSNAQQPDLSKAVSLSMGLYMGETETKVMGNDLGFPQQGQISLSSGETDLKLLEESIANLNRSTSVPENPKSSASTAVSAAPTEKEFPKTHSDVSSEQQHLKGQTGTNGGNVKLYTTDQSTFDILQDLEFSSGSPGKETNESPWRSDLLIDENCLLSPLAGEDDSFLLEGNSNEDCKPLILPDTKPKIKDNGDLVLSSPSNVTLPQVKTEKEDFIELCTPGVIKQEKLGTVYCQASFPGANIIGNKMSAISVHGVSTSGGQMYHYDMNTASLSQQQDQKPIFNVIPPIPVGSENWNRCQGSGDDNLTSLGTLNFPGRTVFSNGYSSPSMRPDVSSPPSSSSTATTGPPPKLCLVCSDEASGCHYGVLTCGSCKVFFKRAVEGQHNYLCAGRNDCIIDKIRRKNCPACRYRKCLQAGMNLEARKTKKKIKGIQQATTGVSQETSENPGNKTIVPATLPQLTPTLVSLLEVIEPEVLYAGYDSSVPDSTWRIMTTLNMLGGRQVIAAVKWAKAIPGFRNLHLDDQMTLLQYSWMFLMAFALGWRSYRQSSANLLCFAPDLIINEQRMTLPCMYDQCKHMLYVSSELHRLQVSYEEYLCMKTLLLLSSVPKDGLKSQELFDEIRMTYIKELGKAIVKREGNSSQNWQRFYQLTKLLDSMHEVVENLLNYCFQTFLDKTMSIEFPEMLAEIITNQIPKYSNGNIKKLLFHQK
The experiment in a line: Displacement of fluormone GS1 from human GST-tagged glucocorticoid receptor-LBD at 30 uM by TR-FRET assay.

For assay [2], the species on record is Homo sapiens. As to the kind of experiment: Induction of adipogenesis in human bone marrow-derived mesenchymal stem cells assessed as increase in adiponectin production at 60 uM measured on day 5 in presence of IDX by ELISA. In kind it is functional. In general terms: An ELISA detects its analyte on a solid surface through an enzyme-linked reagent.
For assay [3], the target named is T2, Peroxisome proliferator-activated receptor gamma (Homo sapiens) (UniProt P37231).
T2 sequence (whole entry): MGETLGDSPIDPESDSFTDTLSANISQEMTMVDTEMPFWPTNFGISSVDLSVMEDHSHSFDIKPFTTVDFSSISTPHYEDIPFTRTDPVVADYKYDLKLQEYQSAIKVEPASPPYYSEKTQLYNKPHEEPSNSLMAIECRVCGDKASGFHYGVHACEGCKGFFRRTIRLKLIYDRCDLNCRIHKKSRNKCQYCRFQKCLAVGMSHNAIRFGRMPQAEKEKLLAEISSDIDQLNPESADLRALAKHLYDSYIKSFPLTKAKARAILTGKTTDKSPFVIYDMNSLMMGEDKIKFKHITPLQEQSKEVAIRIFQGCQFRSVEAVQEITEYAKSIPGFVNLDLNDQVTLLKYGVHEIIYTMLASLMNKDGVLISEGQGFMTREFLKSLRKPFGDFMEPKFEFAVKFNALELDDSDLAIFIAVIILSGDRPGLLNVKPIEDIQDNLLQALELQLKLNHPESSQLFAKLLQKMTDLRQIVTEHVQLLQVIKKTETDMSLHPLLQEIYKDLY
As to the kind of experiment: Displacement of fluormone Pan-PPAR Green from human GST-tagged PPARgamma-LBD at 30 uM by TR-FRET assay relative to control. A general note: Time-resolved FRET reads energy transfer from a long-lived donor to a nearby acceptor.

Assay [4] deals with T3, Peroxisome proliferator-activated receptor delta (Homo sapiens) (UniProt Q03181).
T3 sequence (whole entry): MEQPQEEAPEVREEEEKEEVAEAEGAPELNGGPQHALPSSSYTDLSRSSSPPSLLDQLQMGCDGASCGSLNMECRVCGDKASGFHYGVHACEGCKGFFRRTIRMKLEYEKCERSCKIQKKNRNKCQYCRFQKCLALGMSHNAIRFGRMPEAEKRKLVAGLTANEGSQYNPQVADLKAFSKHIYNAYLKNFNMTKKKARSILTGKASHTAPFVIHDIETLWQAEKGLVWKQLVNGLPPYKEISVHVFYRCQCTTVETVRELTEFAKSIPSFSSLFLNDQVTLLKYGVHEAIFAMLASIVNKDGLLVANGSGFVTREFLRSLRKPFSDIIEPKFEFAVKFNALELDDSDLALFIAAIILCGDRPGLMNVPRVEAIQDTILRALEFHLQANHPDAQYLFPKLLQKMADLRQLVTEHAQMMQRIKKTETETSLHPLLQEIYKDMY
The experiment in a line: Displacement of fluormone Pan-PPAR Green from human GST-tagged PPARdelta-LBD at 30 uM by TR-FRET assay.

Assay [5] addresses T4, Oxysterols receptor LXR-beta (Homo sapiens) (UniProt P55055).
T4 sequence (whole entry): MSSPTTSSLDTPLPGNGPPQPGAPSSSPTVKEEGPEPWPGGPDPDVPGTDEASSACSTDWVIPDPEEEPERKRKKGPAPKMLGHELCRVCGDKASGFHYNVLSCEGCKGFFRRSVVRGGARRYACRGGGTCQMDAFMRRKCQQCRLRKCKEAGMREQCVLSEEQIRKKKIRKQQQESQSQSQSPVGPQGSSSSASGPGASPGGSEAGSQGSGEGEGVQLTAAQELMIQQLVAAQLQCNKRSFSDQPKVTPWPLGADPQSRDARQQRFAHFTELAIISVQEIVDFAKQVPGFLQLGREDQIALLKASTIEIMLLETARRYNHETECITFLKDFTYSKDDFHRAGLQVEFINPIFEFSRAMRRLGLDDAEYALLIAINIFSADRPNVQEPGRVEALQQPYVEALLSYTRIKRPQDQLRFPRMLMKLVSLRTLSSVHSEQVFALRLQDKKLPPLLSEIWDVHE
The experiment in a line: Transactivation of LXRbeta (unknown origin) at 30 uM by TR-FRET assay.

Assay [6] has as its target T5, Peroxisome proliferator-activated receptor alpha (Homo sapiens) (UniProt Q07869).
T5 sequence (whole entry): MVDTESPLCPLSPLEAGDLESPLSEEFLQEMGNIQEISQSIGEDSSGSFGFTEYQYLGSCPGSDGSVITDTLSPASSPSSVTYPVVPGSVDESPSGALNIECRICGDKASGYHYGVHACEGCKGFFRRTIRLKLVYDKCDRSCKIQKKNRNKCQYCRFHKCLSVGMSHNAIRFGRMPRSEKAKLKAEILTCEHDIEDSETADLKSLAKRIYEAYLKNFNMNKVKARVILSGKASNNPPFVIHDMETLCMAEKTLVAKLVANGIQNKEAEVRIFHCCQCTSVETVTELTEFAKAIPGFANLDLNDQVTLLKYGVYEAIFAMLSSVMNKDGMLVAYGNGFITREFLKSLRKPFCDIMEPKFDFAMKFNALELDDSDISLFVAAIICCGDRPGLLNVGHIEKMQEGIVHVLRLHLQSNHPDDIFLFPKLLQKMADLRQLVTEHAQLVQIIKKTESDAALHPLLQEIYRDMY
As to the kind of experiment: Displacement of fluormone Pan-PPAR Green from human GST-tagged PPARalpha-LBD at 30 uM by TR-FRET assay.

Assay [7] has as its target T6, Oxysterols receptor LXR-alpha (Homo sapiens) (UniProt Q13133).
T6 sequence (whole entry): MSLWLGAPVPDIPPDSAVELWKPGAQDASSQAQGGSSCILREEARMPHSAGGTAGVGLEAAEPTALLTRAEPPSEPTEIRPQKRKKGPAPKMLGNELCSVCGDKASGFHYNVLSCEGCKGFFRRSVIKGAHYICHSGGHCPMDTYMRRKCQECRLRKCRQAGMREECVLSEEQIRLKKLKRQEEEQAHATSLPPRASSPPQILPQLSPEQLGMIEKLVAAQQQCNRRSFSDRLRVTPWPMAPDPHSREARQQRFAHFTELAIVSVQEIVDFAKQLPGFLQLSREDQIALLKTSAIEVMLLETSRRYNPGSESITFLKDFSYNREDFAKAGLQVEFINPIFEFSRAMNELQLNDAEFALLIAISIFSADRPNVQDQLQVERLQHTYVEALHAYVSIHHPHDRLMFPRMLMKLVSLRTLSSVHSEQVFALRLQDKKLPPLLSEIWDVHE
As to the kind of experiment: Transactivation of recombinant human GST-tagged LXRalpha-LBD at 30 uM by TR-FRET assay.

Assay [8] has as its target T5, Peroxisome proliferator-activated receptor alpha (Homo sapiens). The experiment in a line: Displacement of fluormone Pan-PPAR Green from human GST-tagged PPARalpha-LBD at 10 uM by TR-FRET assay.
Assay [9] deals with T7, Peroxisome proliferator-activated receptor gamma (Homo sapiens, UniProt P37231).
T7 sequence (P37231 whole entry): T2 sequence (whole entry)
The experiment in a line: Displacement of fluormone Pan-PPAR Green from human GST-tagged PPARgamma-LBD by TR-FRET assay.

The target in assay [10] is T1, Glucocorticoid receptor (Homo sapiens). As to the kind of experiment: Displacement of fluormone GS1 from human GST-tagged glucocorticoid receptor-LBD at 10 uM by TR-FRET assay.
In assay [11] the target is T2, Peroxisome proliferator-activated receptor gamma (Homo sapiens). The experiment in a line: Displacement of fluormone Pan-PPAR Green from human GST-tagged PPARgamma-LBD at 10 uM by TR-FRET assay relative to control.
Assay [12] shares this target. The experiment in a line: Partial agonist activity at PPARgamma in human bone marrow-derived mesenchymal stem cells assessed as inhibition of troglitazone-induced upregulation of PPARgamma mRNA level at 3 to 10 uM measured on day 3 in presence of IDX by qRT-PCR analysis.
Assay [13] shares this target. The experiment in a line: Partial agonist activity at PPARgamma in human bone marrow-derived mesenchymal stem cells assessed as inhibition of troglitazone-induced upregulation of FABP4 mRNA level at 3 to 10 uM measured on day 3 in presence of IDX by qRT-PCR analysis. (In qPCR the cycle at which signal appears reflects the starting amount.)
The target is the same in assay [14]. As to the kind of experiment: Partial agonist activity at PPARgamma in human bone marrow-derived mesenchymal stem cells assessed as inhibition of troglitazone-induced increase in adiponectin level at 3 to 10 uM measured on day 5 in presence of IDX by ELISA.
Assay [15] addresses T6, Oxysterols receptor LXR-alpha (Homo sapiens). As to the kind of experiment: Transactivation of recombinant human GST-tagged LXRalpha-LBD at 10 uM by TR-FRET assay.
The target in assay [16] is T2, Peroxisome proliferator-activated receptor gamma (Homo sapiens). The experiment in a line: Partial agonist activity at PPARgamma in human bone marrow-derived mesenchymal stem cells assessed as inhibition of troglitazone-induced upregulation of adiponectin mRNA level at 3 to 10 uM measured on day 3 in presence of IDX by qRT-PCR analysis.
Assay [17] is filed under the species Homo sapiens. As to the kind of experiment: Induction of adipogenesis in human bone marrow-derived mesenchymal stem cells assessed as increase in adiponectin production measured on day 5 in presence of IDX by ELISA. In kind it is functional.
Assay [18] has as its target T3, Peroxisome proliferator-activated receptor delta (Homo sapiens). The experiment in a line: Displacement of fluormone Pan-PPAR Green from human GST-tagged PPARdelta-LBD at 10 uM by TR-FRET assay.
The species named for assay [19] is Homo sapiens. The experiment in a line: Induction of adipogenesis in human bone marrow-derived mesenchymal stem cells assessed as increase in lipid droplet accumulation at 30 uM measured on day 5 in presence of IDX by ORO staining based spectrophotometric analysis. In kind it is functional.
Assay [20] addresses T4, Oxysterols receptor LXR-beta (Homo sapiens). As to the kind of experiment: Transactivation of LXRbeta (unknown origin) at 10 uM by TR-FRET assay.
The species named for assay [21] is Homo sapiens. The experiment in a line: Induction of adipogenesis in human bone marrow-derived mesenchymal stem cells assessed as increase in adiponectin production at 100 uM measured on day 5 in presence of IDX by ELISA. It is filed as functional.
For assay [22], the species on record is Homo sapiens. As to the kind of experiment: Induction of adipogenesis in human bone marrow-derived mesenchymal stem cells assessed as increase in adiponectin production at 1 uM measured on day 5 in presence of IDX by ELISA. In kind it is functional.
For assay [23], the species on record is Homo sapiens. The experiment in a line: Induction of adipogenesis in human bone marrow-derived mesenchymal stem cells assessed as increase in adiponectin production at 10 uM measured on day 5 in presence of IDX by ELISA. It is filed as functional.

Each structure is given as a SMILES string. Active and inactive are the calls of the source. The calls are words filed in the database; no cut-off is given here.

As to `c1cnc2c(C3NCCc4c3[nH]c3ccccc43)cccc2c1` (stereo not drawn), the result in [1], in assay [4], in assay [5], in [6] and in assay [7] was inactive. In addition, the result in the assay listed under Homo sapiens [2] was Active. In [3], this compound returned an Activity of 24 to 36%.

For `O=CN1CCc2c([nH]c3ccccc23)C1c1cccc2cccnc12` (stereo not drawn), the result in assay [8], in assay [10], in assay [15], in [18] and in assay [20] was inactive. Further, the Ki (usually the dissociation constant of the complex between target and ligand, obtained from inhibition or displacement) in assay [9] was 7.1 µM. The figures for the Activity (in assay [11]; in the assay filed under Homo sapiens [17]) were 58% and “Dose-dependent effect”, respectively. In addition, the inhibition result in assay [12], in assay [13], in assay [14] and in [16] was “Active” in each case. In addition, in the assay listed under Homo sapiens [19], the outcome was Active.

Consider `CC(=O)Oc1ccccc1C(=O)O`, for which the result in the assay listed under Homo sapiens [21] was Active.

Consider `Cc1c(C)c2c(c(C)c1O)CCC(C)(COc1ccc(CC3SC(=O)NC3=O)cc1)O2` (stereo not drawn), for which the outcome in the assay listed under Homo sapiens [22] was Active.

`COc1ccc(Cl)cc1C(=O)NCCc1ccc(S(=O)(=O)NC(=O)NC2CCCCC2)cc1`: the outcome in the assay filed under Homo sapiens [23] was Active.

The record behind these values is ChEMBL document CHEMBL4184241, “2-Formyl-komarovicine promotes adiponectin production in human mesenchymal stem cells through PPARγ partial agonism” (Bioorg Med Chem, 2018).
